Where only a bound is given, the exact number is not on record here.

What is called Kd is a measure of binding affinity in units of concentration.

Chain of human TYK2 (JH2domain-pseudokinase) (P29597 556-888): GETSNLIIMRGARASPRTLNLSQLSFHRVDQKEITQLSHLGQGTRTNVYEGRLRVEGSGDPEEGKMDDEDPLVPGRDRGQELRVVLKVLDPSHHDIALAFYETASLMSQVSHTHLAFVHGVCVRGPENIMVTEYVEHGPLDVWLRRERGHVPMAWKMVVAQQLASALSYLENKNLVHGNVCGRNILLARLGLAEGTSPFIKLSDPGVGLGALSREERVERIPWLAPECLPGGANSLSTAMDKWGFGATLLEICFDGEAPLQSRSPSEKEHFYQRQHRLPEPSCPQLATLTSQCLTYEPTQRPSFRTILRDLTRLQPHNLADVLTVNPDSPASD

The test has as its target human TYK2 (JH2domain-pseudokinase) (Homo sapiens (Human), UniProt P29597). As to the kind of experiment: TYK2 JH2 Domain Binding Assay (KINOMEscan). Particulars: 11-point 3-fold dilution, top concentration 30,000 nM, duplicate; read-out: hTYK2_JH2_Binding (Kd; nM). On the procedure: Binding constants for compounds of the present invention against the JH2 domain were determined by the following protocol for a KINOMEscan® assay (DiscoveRx). A fusion protein of a partial length construct of human TYK2 (JH2domain-pseudokinase) (amino acids G556 to D888 based on reference sequence NP_003322.3) and the DNA binding domain of NFkB was expressed in transiently transfected HEK293 cells. From these HEK 293 cells, extracts were prepared in M-PER extraction buffer (Pierce) in the presence of Protease Inhibitor Cocktail Complete (Roche) and Phosphatase Inhibitor Cocktail Set II (Merck) per manufacturers' instructions. The TYK2(JH2domain-pseudokinase) fusion protein was labeled with a chimeric double-stranded DNA tag containing the NFkB binding site (5′-[…]-3′) fused to an amplicon for qPCR readout, which was added directly to the expression extract (the final concentration of DNA-tag in the binding reaction is 0.1 nM).
The liganded beads were blocked with excess biotin and washed with blocking buffer (SeaBlock (Pierce), 1% BSA, 0.05% Tween 20, 1 mM DTT) to remove unbound ligand and to reduce nonspecific binding.
Extracts were loaded with DNA-tag and diluted into the binding reaction in a two step process. First extracts were diluted 1:100 in 1× binding buffer (PBS/0.05% Tween 20/10 mM DTT/0.1% BSA/2 μg/ml sonicated salmon sperm DNA) containing 10 nM DNA-tag. This dilution was allowed to equilibrate at room temperature for 15 minutes and then subsequently diluted 1:100 in 1× binding buffer. […] Kds were determined using an 11-point 3-fold compound dilution series with three DMSO control points. […] The compounds were then diluted directly into the assays such that the final concentration of DMSO was 0.9%. All reactions performed in polypropylene 384-well plates. Each was a final volume of 0.02 mL. Assays were incubated with shaking for 1 hour at room temperature. Then the beads were pelleted and washed with wash buffer (lx PBS, 0.05% Tween 20) to remove displaced kinase and test compound. […] The qPCR protocol consisted of a 10 minute hot start at 95° C., followed by 35 cycles of 95° C. for 15 seconds, 60° C. for 1 minute.
Kds were determined using an 11-point 3-fold compound dilution series with three DMSO control points. […] The compounds were then diluted directly into the assays such that the final concentration of DMSO was 0.9%. The Kds were determined using a compound top concentration of 30,000 nM. Kd measurements were performed in duplicate.
Binding constants (Kds) were calculated with a standard dose-response curve using the Hill equation: […]
The Hill Slope was set to −1.
`CNc1cc(Nc2cccn(-c3ncco3)c2=O)nc2c(C(=O)N[C@H]3CC[C@H](OC)C3)cnn12` [Compound I-84, N-((1S,3S)-3-Methoxycyclopentyl)-7-(methylamino)-5-((1-(oxazol-2-yl)-2-oxo-1,2-dihydropyridin-3-yl)amino)pyrazolo[1,5-a]pyrimidine-3-carboxamide]: the Kd fell in the range of 0.2 to 1 nM.
As for `CNc1cc(Nc2cccn(C3CCOCC3)c2=O)nc2c(C(=O)N[C@H]3C[C@@H]3OC)cnn12` [Compound I-28, N-((1S,2S)-2-Methoxycyclopropyl)-7-(methylamino)-5-((2-oxo-1-(tetrahydro-2H-pyran-4-yl)-1,2-dihydropyridin-3-yl)amino)pyrazol[1,5-a]pyrimidine-3-carboxamide], the figure is less than 0.2 nM; as for `CNc1cc(Nc2ccc(F)n(-c3ccccn3)c2=O)nc2c(C(=O)NC3CC3)cnn12` [Compound I-473], more than 10 nM.
As for `CNc1ccc(-c2cc(NC)n3ncc(C(=O)NC4CCC4(F)F)c3n2)n2ccnc12` (stereo not drawn) [Compound I-491], the Kd was less than 0.2 nM.
As for `O=C(N[C@H]1CCC1(F)F)c1cnn2c3c(c(-c4cn(C5COC5)c5ncccc45)nc12)OCCN3` [Compound I-773], the figure is less than 0.2 nM.
In the case of `CNc1cc(Nc2cccn([C@H]3CC[C@@H]3O)c2=O)nc2c(C(=O)N[C@H]3CCC[C@H](OC)C3)cnn12` [Compound I-97, 5-((1-((1S,2S)-2-Hydroxycyclobutyl)-2-oxo-1,2-dihydropyridin-3-yl)amino)-N-((1S,3S)-3-methoxycyclohexyl)-7-(methylamino)pyrazolo[1,5-a]pyrimidine-3-carboxamide] it was 1 to 10 nM; in that of `CNc1cc(-c2cn([C@H]3COC[C@@H]3O)c3ncccc23)nc2c(C(=O)NC3CC3)cnn12` [Compound I-496], less than 0.2 nM; in that of `CNc1cc(Nc2cccn([C@@H]3C[C@H]3F)c2=O)nc2c(C(=O)N[C@H]3CC[C@@H]3OC)cnn12` [Compound I-52, 5-((1-((1R,2R)-2-Fluorocyclopropyl)-2-oxo-1,2-dihydropyridin-3-yl)amino)-N-((1S,2S)-2-methoxycyclobutyl)-7-(methylamino)pyrazolo[1,5-a]pyrimidine-3-carboxamide], 0.2 to 1 nM.
As for `CNc1cc(Nc2cccn(C(C)C)c2=O)nc2c(C(=O)N[C@@H]3C[C@H]3OC)cnn12` [Compound I-29, 5-((1-Isopropyl-2-oxo-1,2-dihydropyridin-3-yl)amino)-N-((1R,2R)-2-methoxycyclopropyl)-7-(methylamino)pyrazolo[1,5-a]pyrimidine-3-carboxamide], the figure is 0.2 to 1 nM.
`CNc1cc(-c2cn([C@H]3C[C@@H](COC)C3)c3ncccc23)nc2c(C(=O)N[C@@H]3CC[C@H]3OC)cnn12` [Compound I-934]: the Kd was less than 0.2 nM.
On to `CNc1cc(-c2cn([C@H]3CCOC[C@@H]3O)c3ncccc23)nc2c(C(=O)N[C@@H]3C[C@@H]3F)cnn12` [Compound I-506], for which the dissociation constant Kd was less than 0.2 nM.
In the case of `CNc1cc(Nc2cccn([C@H]3CC[C@H]3O)c2=O)nc2c(C(=O)N[C@@H]3CC[C@@H](OC)C3)cnn12` [Compound I-85, 5-((1-((1S,2R)-2-Hydroxycyclobutyl)-2-oxo-1,2-dihydropyridin-3-yl)amino)-N-((1R,3R)-3-methoxycyclopentyl)-7-(methylamino)pyrazolo[1,5-a]pyrimidine-3-carboxamide] it was 1 to 10 nM.
As to `O=C(N[C@@H]1CC[C@H]1F)c1cnn2c3c(c(-c4cn([C@H]5C[C@H](O)C5)c5ncccc45)nc12)OCCN3` [Compound I-758], the dissociation constant (Kd) is less than 0.2 nM.
As for `CNc1cc(Nc2cccn([C@H]3C[C@@H](OC)C3)c2=O)nc2c(C(=O)N[C@@H]3C[C@@H]3F)cnn12` [Compound I-9, N-((1R,2S)-2-Fluorocyclopropyl)-5-((1-((1s,3S)-3-methoxycyclobutyl)-2-oxo-1,2-dihydropyridin-3-yl)amino)-7-(methylamino)pyrazolo[1,5-a]pyrimidine-3-carboxamide], the figure is less than 0.2 nM.
As for `CO[C@@H]1CCC1NC(=O)c1cnn2c(N)cc(Nc3cccn(-c4ccccn4)c3=O)nc12` (stereo partly drawn) [Compound I-245, 7-Amino-N-((trans-1,2)-2-methoxycyclobutyl)-5-((2-oxo-2H-[1,2′-bipyridin]-3-yl)amino)pyrazolo[1,5-a]pyrimidine-3-carboxamide], the figure is less than 0.2 nM.
In the case of `CNc1cc(Nc2cccn(C3COC3)c2=O)nc2c(C(=O)N[C@H]3CC[C@H]3F)cnn12` [Compound I-161] it was less than 0.2 nM; in that of `CNc1cc(-c2cn(C3CCOCC3)c3ncccc23)nc2c(C(=O)N[C@H]3CCC[C@H](O)C3)cnn12` [Compound I-65, N-((1S,3S)-3-Hydroxycyclohexyl)-7-(methylamino)-5-(1-(tetrahydro-2H-pyran-4-yl)-1H-pyrrolo[2,3-b]pyridin-3-yl)pyrazolo[1,5-a]pyrimidine-3-carboxamide], less than 0.2 nM.
Take `CNc1cc(Nc2cccn(C3CC(F)(F)C3)c2=O)nc2c(C(=O)N[C@H]3CCC[C@](C)(O)C3)cnn12` [Compound I-93, 5-((1-(3,3-Difluorocyclobutyl)-2-oxo-1,2-dihydropyridin-3-yl)amino)-N-((1S,3S)-3-hydroxy-3-methylcyclohexyl)-7-(methylamino)pyrazolo[1,5-a]pyrimidine-3-carboxamide]: the Kd fell in the range of 0.2 to 1 nM.
As for `CNc1cc(-c2ccc(N3CC[C@H](OC)C3)c3nccn23)nc2c(C(=O)NC3CC[C@H]3O)cnn12` (stereo partly drawn) [Compound I-907], the figure is less than 0.2 nM; as for `CNc1cc(-c2cn([C@H]3COC[C@@H]3OC)c3ncccc23)nc2c(C(=O)N[C@@H]3C[C@@H]3F)cnn12` [Compound I-504], less than 0.2 nM.
As for `CNc1cc(Nc2cccn([C@H]3CC[C@H]3O)c2=O)nc2c(C(=O)N[C@H]3CCC[C@H](OC)C3)cnn12` [Compound I-105, 5-((1-((1S,2R)-2-Hydroxycyclobutyl)-2-oxo-1,2-dihydropyridin-3-yl)amino)-N-((1S,3S)-3-methoxycyclohexyl)-7-(methylamino)pyrazolo[1,5-a]pyrimidine-3-carboxamide], the figure is 1 to 10 nM; as for `CNc1cc(-c2cn([C@H]3COC[C@@H]3O)c3ncccc23)nc2c(C(=O)N[C@@H]3C[C@@H]3F)cnn12` [Compound I-501], less than 0.2 nM.
Consider `CO[C@H]1CC[C@@H]1NC(=O)c1cnn2c3c(c(Nc4cccn([C@H]5[C@@H]6COC[C@@H]65)c4=O)nc12)OCCN3` [Compound I-764], for which the Kd was less than 0.2 nM.
As for `CNc1cc(Nc2cccn(-c3coc(C)n3)c2=O)nc2c(C(=O)N[C@@H]3C[C@@H]3F)cnn12` [Compound I-126], the figure is more than 10 nM; as for `CNc1cc(-c2cn([C@@H]3COC[C@H]3O)c3ncccc23)nc2c(C(=O)NC3CC3)cnn12` [Compound I-497], less than 0.2 nM.
As for `CNc1cc(Nc2cccn(C3CC(F)(F)C3)c2=O)nc2c(C(=O)N[C@H]3CC[C@H](OC)C3)cnn12` [Compound I-73, 5-((1-(3,3-Difluorocyclobutyl)-2-oxo-1,2-dihydropyridin-3-yl)amino)-N-((1S,3S)-3-methoxycyclopentyl)-7-(methylamino)pyrazolo[1,5-a]pyrimidine-3-carboxamide], the figure is 1 to 10 nM; as for `CNc1cc(Nc2cccn([C@@H]3CC[C@@H]3O)c2=O)nc2c(C(=O)N[C@@H]3CCC[C@@H](OC)C3)cnn12` [Compound I-99, 5-((1-((1R,2S)-2-Hydroxycyclobutyl)-2-oxo-1,2-dihydropyridin-3-yl)amino)-N-((1R,3R)-3-methoxycyclohexyl)-7-(methylamino)pyrazolo[1,5-a]pyrimidine-3-carboxamide], 0.2 to 1 nM; as for `CNc1cc(Nc2cccn(-c3ccc(C)nc3)c2=O)nc2c(C(=O)N[C@H]3C[C@@H]3OC)cnn12` [Compound I-35, N-((1S,2S)-2-Methoxycyclopropyl)-5-((6′-methyl-2-oxo-2H-[1,3′-bipyridin]-3-yl)amino)-7-(methylamino)pyrazolo[1,5-a]pyrimidine-3-carboxamide], less than 0.2 nM.
As for `CNc1cc(Nc2cccn(-c3coc(C)n3)c2=O)nc2c(C(=O)NC3CC3)cnn12` [Compound I-121], the figure is more than 10 nM; as for `CNc1cc(Nc2ccc(F)n(-c3ccccn3)c2=O)nc2c(C(=O)N[C@@H]3C[C@@H]3F)cnn12` [Compound I-474, 5-((6-Fluoro-2-oxo-2H-[1,2′-bipyridin]-3-yl)amino)-N-((1R,2S)-2-fluorocyclopropyl)-7-(methylamino)pyrazolo[1,5-a]pyrimidine-3-carboxamide], 1 to 10 nM.

For the origin of these results see patent publication US11414431B2, “Substituted pyrazolo[1,5-a]pyrimidines as TYK2 inhibitors” (Nimbus Lakshmi, Inc., priority 2018, dated 2022).
